Reference: patent US20220119511A1, “COMPOSITIONS AND METHODS FOR TREATMENT OF DIABETES, OBESITY, HYPER-CHOLESTEROLEMIA, AND ATHEROSCLEROSIS BY INHIBITION OF SAM68” (The UAB Research Foundation, priority 2020, published 2022)
Residues, ends and D or L forms follow the SMILES beside them. *: point of attachment. Cbz = O=C(OCc1ccccc1)*

B1: Sam68 (Src-associated-in-mitosis-of-68kDa), endogenous, in WT mouse primary hepatocytes (other, UniProt Q60749 1-443, looked up)
chain: MQRRDDPASRLTRSSGRSCSKDPSGAHPSVRLTPSRPSPLPHRPRGGGGGPRGGARASPATQPPPLLPPSTPGPDATVVGSAPTPLLPPSATAAVKMEPENKYLPELMAEKDSLDPSFTHAMQLLSVEIEKIQKGESKKDDEENYLDLFSHKNMKLKERVLIPVKQYPKFNFVGKILGPQGNTIKRLQEETGAKISVLGKGSMRDKAKEEELRKGGDPKYAHLNMDLHVFIEVFGPPCEAYALMAHAMEEVKKFLVPDMMDDICQEQFLELSYLNGVPEPSRGRGVSVRGRGAAPPPPPVPRGRGVGPPRGALVRGTPVRGSITRGATVTRGVPPPPTVRGAPTPRARTAGIQRIPLPPTPAPETYEDYGYDDTYAEQSYEGYEGYYSQSQGESEYYDYGHGELQDSYEAYGQDDWNGTRPSLKAPPARPVKGAYREHPYGRY
notes: Endogenous protein co-immunoprecipitated from mouse primary hepatocytes; also called KHDRBS1

Columns and labels:
[1] = test system: CRTC2; experiment: CRTC2 protein levels in primary hepatocytes treated with proteasome or autophagy inhibitors (Western blot); format: cell-based, mouse; settings: up to 16 h (MG132 20 μM, BZM 100 nM) or up to 8 h (bafilomycin 100 nM)
Description: FIGS. 7A-7J show Sam68 binds CRTC2 and inhibits CRTC2 ubiquitination and proteosomal degradation. In FIG. 7A, WT and Sam68^−/− mice were treated with glucagon (30 μg/kg) or PBS for 10 min; then, nuclear and cytoplasmic proteins were isolated from the liver tissue, and Sam68 protein expression was evaluated via Western blot. In FIG. 7B, CRTC2 was immunoprecipitated from WT and Sam68^−/− primary hepatocytes, and then CRTC2, Sam68, and CREB protein was detected in the precipitates via immunoblot. In FIG. 7C, 293T cells were co-transfected with plasmids coding for HA-tagged Sam68 and Flag-tagged CRTC2; 48 h later, CRTC2 was immunoprecipitated from the cells with anti-Flag, and Sam68 was detected in the precipitates by immunoblotting with anti-HA. In FIG. 7D, 293T cells were co-transfected with plasmids coding for Flag-tagged CRTC2 and HA-tagged WT Sam68 or HA-tagged mutations of Sam68 lacking the N-terminal domain (ΔN), the CK domain (ΔCK), proline motifs 3 and 4 (ΔP3-P4), or the C-terminal domain (ΔC); 48 h later, Sam68 and the Sam68 mutants were immunoprecipitated with anti-HA, and CRTC2 was detected in the precipitates by immunoblotting with anti-Flag. […] P62/SQSTM1 and LC3BI/II protein levels were also evaluated to indicate autophagic activity. […]

[2] = target: T1, CRTC2 (CREB-regulated transcriptional coactivator 2), endogenous, in WT mouse primary hepatocytes (mouse, UniProt Q3U182 2-692); experiment: co-IP from mouse primary hepatocytes (FIG. 7B)
T1 construct: Endogenous protein immunoprecipitated with the CRTC2 antibody (sc-271912); also called endogenous CRTC2
T1 sequence (looked up): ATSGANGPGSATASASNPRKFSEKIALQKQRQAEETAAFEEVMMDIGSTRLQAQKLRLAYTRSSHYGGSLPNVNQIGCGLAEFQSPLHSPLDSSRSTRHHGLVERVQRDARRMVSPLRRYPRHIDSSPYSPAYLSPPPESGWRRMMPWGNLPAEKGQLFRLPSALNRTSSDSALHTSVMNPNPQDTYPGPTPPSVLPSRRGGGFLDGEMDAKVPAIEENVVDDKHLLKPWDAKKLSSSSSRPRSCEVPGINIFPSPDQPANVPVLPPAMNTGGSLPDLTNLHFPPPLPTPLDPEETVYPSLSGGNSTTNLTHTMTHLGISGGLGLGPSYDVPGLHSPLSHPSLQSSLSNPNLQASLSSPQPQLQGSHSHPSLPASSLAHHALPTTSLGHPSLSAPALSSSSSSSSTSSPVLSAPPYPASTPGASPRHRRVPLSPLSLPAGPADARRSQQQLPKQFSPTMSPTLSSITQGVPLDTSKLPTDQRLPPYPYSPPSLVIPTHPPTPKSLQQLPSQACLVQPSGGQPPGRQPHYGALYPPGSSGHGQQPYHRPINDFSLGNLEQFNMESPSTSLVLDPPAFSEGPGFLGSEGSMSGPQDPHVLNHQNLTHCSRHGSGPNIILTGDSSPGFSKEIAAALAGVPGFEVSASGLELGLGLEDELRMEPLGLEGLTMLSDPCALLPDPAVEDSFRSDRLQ
Description: In FIG. 7A, WT and Sam68^{-/-} mice were treated with glucagon (30 μg/kg) or PBS for 10 min; then, nuclear and cytoplasmic proteins were isolated from the liver tissue, and Sam68 protein expression was evaluated via Western blot. In FIG. 7B, CRTC2 was immunoprecipitated from WT and Sam68^{-/-} primary hepatocytes, and then CRTC2, Sam68, and CREB protein was detected in the precipitates via immunoblot. […] In FIG. 7E, WT and Sam68^{-/-} primary hepatocytes were treated with cycloheximide (100 μM) for 0-8 h to block new protein synthesis; then, CRTC2 protein levels were evaluated by Western blot, quantified via Image J software, normalized to β-actin levels, and reported as the proportion of the amount present at 0 h. WT and Sam68^{-/-} primary hepatocytes were treated with cycloheximide and (FIG. 7E) MG132 (20 μM), (FIG. 7F) BZM (100 nM), or (FIG. 7G) bafilomycin (100 nM) for 0-16 (MG132, BZM) or 0-8 (bafilomycin) and CRTC2 protein levels were evaluated by Western blot, quantified via Image J software, normalized to β-actin levels, and reported as the proportion of the amount present in WT cells at 0 h. P62/SQSTM1 and LC3BI/II protein levels were also evaluated to indicate autophagic activity. […]

Molecule | CRTC2 protein levels in Sam68−/− hepatocytes during treatment [1] | binding result [2]
CC(C)C[C@@H](C=O)NC(=O)[C@H](CC(C)C)NC(=O)[C@H](CC(C)C)NC(=O)OCc1ccccc1 [MG132] (Cbz-Leu-Leu-Leu-aldehyde) | approximately doubled | –
bafilomycin | unchanged | –
B1 | – | binds
